Test results reported in patent US20160326098A1, “Pharmaceutically Active Compound for Use as Anti-inflammatory Agent” (Pax Forschung GmbH, priority 2013, published 2016).

System: nitrite/nitrate (NOx)
Experiment: Nitrite/nitrate level, colitis animals, comparison with GM-20 (FIG. 35)
Format: in vivo, rats
Details: 1.11 mmol/kg body weight, vs sham control group P
Protocol: The levels of plasma nitrite/nitrate (NOx), stable end products of NO were measured by the Griess reaction. This assay depends on the reduction of nitrate to nitrite, which is then converted into a colored azo dye compound that is detected spectrophotometrically at 540 nm.
The above-described clinical studies were repeated with animals having colitis which was induced as described above. 20 animals (rats) were randomly divided into four groups, wherein group L served as sham-operated control, having no colitis, group M served as second control having colitis but receiving no further treatment, group N having colitis and being treated with 1.11 mmol/kg body weight of ASS and group O having colitis and being treated with 1.11 mmol/kg of the compound according to the invention. One day after the animals received the enema with TNBS (40 mg/kg i.c.), wherein the animals of group L only received the respective solvent, the animals of group N and O were treated with ASS and the compound according to the invention, respectively. The other animals only received the respective solvent again. Two days after the enema the effects of the treatment were determined by measurement of body weight, blood gas analysis and biopsy. […] Surgery was performed to allow registration of the hemodynamic parameters at 1 h intervals for 6 h (cardiac output [CO] data were measured only at the end of the experiments). […] In addition, fluorescence confocal endomicroscopy was performed to examine the microvasculature and morphologic changes of the mucosa of the distal colon, and full-thickness tissue samples and venous blood samples were taken to determine the biochemical changes in the colon and plasma.
The tests were conducted according to the above described protocol. […] Comparative compound GM-20 is described in the state of the art as being suitable for the therapeutic treatment pathologic disorders characterized by degranulation of the mast cells caused by immunogenic hyperstimulation (see U.S. Pat. No. 5,506,224) The nitrite/nitrate level was measured as described above.

nitrite/nitrate level: increased nitrite/nitrate level
SMILES: CC(=O)Oc1ccccc1C(=O)NCCO [GM-20]
